Like-named read-outs stand apart in the source and are kept apart here.
Columns and labels:
[1] = molecular target: T1, Drosophila OR71a (Drosophila melanogaster, UniProt Q9VUK5); assay: Calcium ion fluorescence (GCaMP6) assay, OR71a stable HEK293 cell line; format: cell-based; details: for Average response: VUAA1-normalized response, mean of biological replicates; for activation at 1 µM / activation at 10 µM / activation at 100 µM: HEK293, read-out: OR71a response (VUAA1-normalized response)
T1 construct: expressed in transfected cells
T1 sequence (Q9VUK5 1-378): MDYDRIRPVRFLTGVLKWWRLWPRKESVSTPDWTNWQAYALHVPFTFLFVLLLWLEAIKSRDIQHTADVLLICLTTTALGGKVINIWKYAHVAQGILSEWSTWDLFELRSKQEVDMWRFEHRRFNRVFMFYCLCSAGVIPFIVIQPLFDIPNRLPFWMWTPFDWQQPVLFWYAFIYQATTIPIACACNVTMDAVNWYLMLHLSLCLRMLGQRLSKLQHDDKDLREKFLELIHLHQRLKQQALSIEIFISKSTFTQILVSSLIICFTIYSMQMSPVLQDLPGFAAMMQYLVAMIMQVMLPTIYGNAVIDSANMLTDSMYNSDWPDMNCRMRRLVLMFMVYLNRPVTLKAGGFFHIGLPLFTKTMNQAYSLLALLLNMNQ
T1 sequence (Q9VNB5 1-486 partner): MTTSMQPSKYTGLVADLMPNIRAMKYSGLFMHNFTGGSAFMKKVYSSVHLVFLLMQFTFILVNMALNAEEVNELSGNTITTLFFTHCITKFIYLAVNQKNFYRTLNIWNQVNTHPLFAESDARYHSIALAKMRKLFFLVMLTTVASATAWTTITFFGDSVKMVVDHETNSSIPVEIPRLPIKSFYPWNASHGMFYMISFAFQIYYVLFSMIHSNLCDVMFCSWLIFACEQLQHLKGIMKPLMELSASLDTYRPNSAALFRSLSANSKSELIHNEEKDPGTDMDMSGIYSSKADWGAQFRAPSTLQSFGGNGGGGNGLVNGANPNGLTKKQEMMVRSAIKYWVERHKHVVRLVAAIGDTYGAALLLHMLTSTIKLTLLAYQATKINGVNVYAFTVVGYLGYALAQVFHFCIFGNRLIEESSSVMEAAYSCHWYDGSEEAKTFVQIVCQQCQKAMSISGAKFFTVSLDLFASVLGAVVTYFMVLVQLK
Procedure, shortened: (§1)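 Responses are VUAA1-normalized ΔF: each VOC-evoked calcium signal, (FMAX−F0)/F0 over 30 s after injection, divided by the same line's mean 50 µM VUAA1 response. Cells were doxycycline-induced HEK293 with GCaMP6 and the cognate Drosophila OR, in HEPES buffer pH 7.3; ligands tested 0.01–100 μM.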

[2] = molecular target: T2, Drosophila OR13a (Drosophila melanogaster, UniProt Q9VXL0); assay: Calcium ion fluorescence (GCaMP6) assay, OR13a stable HEK293 cell line; format: cell-based
T2 construct: expressed in transfected cells
T2 sequence (Q9VXL0 1-418): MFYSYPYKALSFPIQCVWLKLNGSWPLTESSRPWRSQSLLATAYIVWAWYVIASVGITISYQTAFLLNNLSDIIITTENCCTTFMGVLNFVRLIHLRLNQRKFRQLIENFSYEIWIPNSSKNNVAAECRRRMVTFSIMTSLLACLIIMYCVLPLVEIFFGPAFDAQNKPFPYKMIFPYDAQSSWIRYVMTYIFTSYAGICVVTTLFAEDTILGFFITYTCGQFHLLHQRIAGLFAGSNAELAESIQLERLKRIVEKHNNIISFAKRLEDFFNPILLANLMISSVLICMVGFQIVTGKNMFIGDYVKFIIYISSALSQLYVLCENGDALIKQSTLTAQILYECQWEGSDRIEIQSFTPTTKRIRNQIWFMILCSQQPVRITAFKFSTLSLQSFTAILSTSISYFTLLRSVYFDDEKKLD
T2 sequence (Q9VNB5 1-486 partner): T1 sequence (Q9VNB5 1-486 partner)
Procedure, shortened: as §1

[3] = ligand concentration 1 (unit not given), threshold 0.05, below shown as 0
[4] = ligand concentration 10 (unit not given), threshold 0.05, below shown as 0
[5] = ligand concentration 100 (unit not given), threshold 0.05, below shown as 0
[6] = 1 μM VOC, 50 μM VUAA1 = 1, responses not exceeding 0.05 considered 0
[7] = 10 μM VOC, 50 μM VUAA1 = 1, responses not exceeding 0.05 considered 0
[8] = 100 μM VOC, 50 μM VUAA1 = 1, responses not exceeding 0.05 considered 0
[9] = concentration 1, normalized fluorescence change, values below 0.05 threshold given as 0
[10] = concentration 10, normalized fluorescence change, values below 0.05 threshold given as 0
[11] = concentration 100, normalized fluorescence change, values below 0.05 threshold given as 0
[12] = HEK293, read-out: OR13a Average response (VUAA1-normalized), 1 μM VOC, 50 μM VUAA1 = 1, responses not exceeding 0.05 considered 0
[13] = HEK293, read-out: OR13a Average response (VUAA1-normalized), 10 μM VOC, 50 μM VUAA1 = 1, responses not exceeding 0.05 considered 0
[14] = HEK293, read-out: OR13a Average response (VUAA1-normalized), 100 μM VOC, 50 μM VUAA1 = 1, responses not exceeding 0.05 considered 0
[15] = HEK293, read-out: OR13a response (VUAA1-normalized response), VOC concentration 1 μM
[16] = HEK293, read-out: OR13a response (VUAA1-normalized response), VOC concentration 10 μM
[17] = HEK293, read-out: OR13a response (VUAA1-normalized response), VOC concentration 100 μM
[18] = ligand concentration 1 (unit not given), 0.05 threshold, values below shown as 0
[19] = ligand concentration 10 (unit not given), 0.05 threshold, values below shown as 0
[20] = ligand concentration 100 (unit not given), 0.05 threshold, values below shown as 0

Row | Structure (SMILES) | Average response ([1]; OR71a cell line, cc. 1 µM) | Average response ([1]; OR71a cell line, cc. 10 µM) | Average response ([1]; OR71a cell line, cc. 100 µM) | OR71a response (VUAA1-normalized response) ([1]; VOC concentration 1 μM) | OR71a response (VUAA1-normalized response) ([1]; VOC concentration 10 μM) | OR71a response (VUAA1-normalized response) ([1]; VOC concentration 100 μM) | DF norm AVERAGE OR71a [1, 3] | DF norm AVERAGE OR71a [1, 4] | DF norm AVERAGE OR71a [1, 5] | OR13a Average response (VUAA1-normalized) [2, 6] | OR13a Average response (VUAA1-normalized) [2, 7] | OR13a Average response (VUAA1-normalized) [2, 8] | OR13a response (VUAA1-normalized response) ([2]; VOC concentration 1 μM) | OR13a response (VUAA1-normalized response) ([2]; VOC concentration 10 μM) | OR13a response (VUAA1-normalized response) ([2]; VOC concentration 100 μM) | DF norm AVERAGE OR13a [2, 3] | DF norm AVERAGE OR13a [2, 4] | DF norm AVERAGE OR13a [2, 5] | activation at 1 µM [2, 12] [%] | activation at 10 µM [2, 13] [%] | further results
1 | C=C(C)[C@H]1CC=C(C)CC1 [limonene] | 0.00 | 0.00 | 0.00 | 0.00 | 0.00 | 0.00 | 0 | 0 | 0 | 0.00 | 0.00 | 0.00 | 0.00 | 0.00 | 0.00 | 0 | 0 | 0 | – | – | –
2 | CC(C)=CCC/C(C)=C/CC/C(C)=C/CO [e,e-farnesol] | 0.00 | 0.0452 | 0.00 | 0.00 | 0.00 | 0.00 | 0 | 0 | 0 | 0.00 | 0.033 | 0.026 | 0.00 | 0.00 | 0.00 | 0 | 0 | 0 | – | – | –
3 | C=C(C)C1CCC2(C)OC2C1 (single isomer, unassigned; (+)) [(+)-limonene oxide] | 0.0247 | 0.0256 | 0.00 | 0.00 | 0.00 | 0.00 | – | – | – | 0.00 | 0.00 | 0.00 | 0.00 | 0.00 | 0.00 | – | – | – | – | – | DF norm AVERAGE OR71a [1, 9]: 0; DF norm AVERAGE OR71a [1, 10]: 0; DF norm AVERAGE OR71a [1, 11]: 0; DF norm AVERAGE OR13a [2, 9]: 0; DF norm AVERAGE OR13a [2, 10]: 0; DF norm AVERAGE OR13a [2, 11]: 0
4 | CC1=CCC2CC1C2(C)C (stereo not drawn) [alpha-pinene] | 0.0368 | 0.00 | 0.00 | – | – | – | 0 | 0 | 0 | – | – | – | – | – | – | 0 | 0 | 0 | 0 | 0 | activation at 1 µM [1]: 0%; activation at 10 µM [1]: 0%; activation at 100 µM [1]: 0%; activation at 100 µM [2, 14]: 1.73%; activation at 1 µM [2, 15]: 0%; activation at 10 µM [2, 16]: 0%; activation at 100 µM [2, 17]: 0%
5 | C=C1[C@H]2CC[C@@H]3[C@H]2C(C)(C)CCC[C@]13C [(+)-longifolene] | 0.00 | 0.03 | 0.0431 | 0.00 | 0.00 | 0.00 | – | – | – | 0.00 | 0.037 | 0.00 | 0.00 | 0.00 | 0.00 | – | – | – | – | – | DF norm AVERAGE OR71a [1, 9]: 0; DF norm AVERAGE OR71a [1, 10]: 0; DF norm AVERAGE OR71a [1, 11]: 0; DF norm AVERAGE OR13a [2, 9]: 0; DF norm AVERAGE OR13a [2, 10]: 0; DF norm AVERAGE OR13a [2, 11]: 0
6 | C=C1CCC2CC1C2(C)C (stereo not drawn) [beta-pinene] | 0.0344 | 0.0361 | 0.00 | – | – | – | 0 | 0 | 0 | – | – | – | – | – | – | 0.08064 | 0 | 0 | 8 | 0 | activation at 1 µM [1]: 0%; activation at 10 µM [1]: 0%; activation at 100 µM [1]: 0%; activation at 100 µM [2, 14]: 3.25%; activation at 1 µM [2, 15]: 8%; activation at 10 µM [2, 16]: 0%; activation at 100 µM [2, 17]: 0%
7 | CC/C=C\CCOC(C)=O [z3-hexenyl acetate] | 0.00 | 0.00 | 0.00 | – | – | – | – | – | – | – | – | – | – | – | – | – | – | – | 0 | 2.61 | DF norm AVERAGE OR71a [1, 18]: 0; DF norm AVERAGE OR71a [1, 19]: 0; DF norm AVERAGE OR71a [1, 20]: 0; activation at 100 µM [2, 14]: 9%; DF norm AVERAGE OR13a [2, 18]: 0; DF norm AVERAGE OR13a [2, 19]: 0; DF norm AVERAGE OR13a [2, 20]: 0.09283
8 | OCCc1ccccc1 [phenethyl alcohol] | 0.09 | 0.03 | 0.0218 | – | – | – | 0.08619 | 0 | 0 | – | – | – | – | – | – | 0.06578 | 0.05738 | 0 | 6.58 | 6 | OR71a response (VUAA1-normalized) at 1 μM ([1]; OR71a cell line, VOC concentration 1 μM): 0.09; OR71a response (VUAA1-normalized) at 10 μM ([1]; OR71a cell line, VOC concentration 10 μM): 0.00; OR71a response (VUAA1-normalized) at 100 μM ([1]; OR71a cell line, VOC concentration 100 μM): 0.00; activation at 100 µM [2, 14]: 3%; OR13a response (VUAA1-normalized) at 1 μM ([2]; OR13a cell line, VOC concentration 1 μM): 0.0658; OR13a response (VUAA1-normalized) at 10 μM ([2]; OR13a cell line, VOC concentration 10 μM): 0.06; OR13a response (VUAA1-normalized) at 100 μM ([2]; OR13a cell line, VOC concentration 100 μM): 0.00

From PMC10709440, “High-throughput ligand profile characterization in novel cell lines expressing seven heterologous insect olfactory receptors for the detection of volatile plant biomarkers” (Scientific Reports, 2023)
